Experimental data reported in patent publication US20050075375A1 (priority 2003, published 2005).
pEC50: −log10 of the molar value. Like-named read-outs stand apart in the source and are kept apart here.

System: monocistronic NK5.1 HCV replicon in Huh7 cells
Assay: HCV replicon assay, monocistronic replicon cell line
Assay type: cell-based, hepatitis C virus
Conditions: Hepatitis C virus, read-out: Mono EC50 Median
Summary of the method: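 Huh7 cells carrying the monocistronic NK5.1 replicon, seeded 24 h before dosing, were exposed to six-point half-log compound series (0.6% DMSO) for 3 days at 37 °C. Replicon RNA was quantified by TaqMan RT-PCR, normalised to GAPDH and compared with DMSO controls to derive EC50.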

[1] = Huh-7, monocistronic NK5.1 HCV replicon in Huh7 cells, median value
[2] = Huh-7, 72 h, table T3 (compounds 471-640), monocistronic replicon in Huh7 cells, 3 days incubation, HCV RNA/GAPDH RNA by TaqMan RT-PCR
[3] = Huh-7, 72 h, Table 1, monocistronic replicon in Huh7 cells, 3 days incubation, HCV RNA/GAPDH RNA by TaqMan RT-PCR

Compound: c1ccc(-c2n[nH]c(-c3cccc4ccccc34)n2)nc1 [Compound 350, 2-(5-Naphthalen-1-yl-1H-[1,2,4]triazol-3-yl)-pyridine]
- pEC50 [1]: < 4.72

Compound: COc1ccc(F)c(-c2nc(-c3cccc(C)n3)n[nH]2)c1 [Compound 406, 2-[5-(2-Fluoro-5-methoxy-phenyl)-1H-[1,2,4]triazol-3-yl]-6-methyl-pyridine]
- pEC50 [1]: < 4.72

Compound: Oc1ccccc1-c1nc(-c2cnccc2C(F)(F)F)n[nH]1 [Compound 422, 2-[5-(4-trifluoromethyl-pyridin-3-yl)-2H-[1,2,4]triazol-3-yl]-phenol]
- pEC50 [1]: < 4.72

Compound: O=[N+]([O-])c1ccc(F)c(-c2nc(-c3ncccc3[N+](=O)[O-])no2)c1 [Compound 168, 2-[5-(2-Fluoro-5-nitro-phenyl)-[1,2,4]oxadiazol-3-yl]-3-nitro-pyridine]
- pEC50 (Huh-7, 72 h): 5.34

Compound: CC(C)(C)c1ccc(O)c(-c2nc(-c3cnccc3C(F)(F)F)n[nH]2)c1 [Compound 411, 4-tert-Butyl-2-[5-(4-trifluoromethyl-pyridin-3-yl)-2H-[1,2,4]triazol-3-yl]-phenol]
- pEC50 [1]: 5.00

Compound: Fc1cccc(Cl)c1-c1nc(-c2cnccc2C(F)(F)F)n[nH]1 [Compound 479, 3-[5-(2-Fluoro-6-chloro-phenyl)-1H-[1,2,4]triazol-3-yl]-4-trifluoromethyl-pyridine]
- pEC50 [2]: < 4.49

Compound: Cc1ccc(O)c(-c2nc(-c3ccccn3)n[nH]2)c1 [Compound 359, 4-Methyl-2-(5-pyridin-2-yl-2H-[1,2,4]triazol-3-yl)-phenol]
- pEC50 [1]: < 4.72

Compound: COc1cccc(-c2nc(-c3ncccc3C)nn2C)c1O [Compound 615, 6-Methoxy-2-[2-methyl-5-(3-methyl-pyridin-2-yl)-2H-[1,2,4]triazol-3-yl]-phenol]
- pEC50 [2]: 4.74

Compound: O=[N+]([O-])c1cccnc1-c1n[nH]c(-c2c(O)ccc3ccccc23)n1 [Compound 558, 1-[5-(3-Nitro-pyridin-2-yl)-2H-[1,2,4]triazol-3-yl]-naphthalen-2-ol]
- pEC50 [2]: < 5.49

Compound: Oc1ccc(Br)cc1-c1nc(-c2cnccc2C(F)(F)F)n[nH]1 [Compound 419, 4-Bromo-2-[5-(4-trifluoromethyl-pyridin-3-yl)-2H-[1,2,4]triazol-3-yl]-phenol]
- pEC50 [1]: 4.92

Compound: COc1cccnc1-c1noc(-c2cc(Br)ccc2O)n1 [Compound 249, 4-Bromo-2-[3-(3-methoxy-pyridin-2-yl)-[1,2,4]oxadiazol-5-yl]-phenol]
- pEC50 [3]: 6.12
- pEC50 [1]: 6.12

Compound: COc1cccc(-c2nc(-c3ccccn3)nn2C)c1O [Compound 603, 6-Methoxy-2-(2-methyl-5-pyridin-2-yl-2H-[1,2,4]triazol-3-yl)-phenol]
- pEC50 [2]: < 4.49

Compound: Cc1cc(-c2ccccc2O)nn1-c1ccccc1[N+](=O)[O-] [Compound 2, 2-[5-Methyl-1-(2-nitro-phenyl)-1H-pyrazol-3-yl]-phenol]
- pEC50 [3]: < 4.49

Compound: COc1cccc(-c2nc(-c3ccc(NC(=O)OC(C)(C)C)cn3)no2)c1O [Compound 237, {6-[5-(2-Hydroxy-3-methoxy-phenyl)-[1,2,4]oxadiazol-3-yl]-pyridin-3-yl}-carbamic acid tert-butyl ester]
- pEC50 [3]: < 4.49
- pEC50 [1]: < 4.49

Compound: COc1cccc(-c2nc(-c3ncccc3-c3ccccc3)no2)c1O [Compound 230, 2-Methoxy-6-[3-(3-phenyl-pyridin-2-yl)-[1,2,4]oxadiazol-5-yl]-phenol]
- pEC50 [3]: 5.01
- pEC50 [1]: 5.01

Compound: Cc1ccc(O)c(-c2nc(-c3cccc(C)n3)n[nH]2)c1 [Compound 400, 4-Methyl-2-(5-(6-methyl-pyridin-2-yl)-2H-[1,2,4]triazol-3-yl)-phenol]
- pEC50 [1]: < 4.72

Compound: Oc1ccc(Br)cc1-c1ncn(-c2ccccn2)n1 [Compound 631, 4-Bromo-2-(1-pyridin-2-yl-1H-[1,2,4]triazol-3-yl)-phenol]
- pEC50 [2]: 5.85

Compound: CCOc1cccc(-c2nc(-c3ccccn3)n[nH]2)c1O [Compound 355, 6-Ethoxy-2-(5-pyridin-2-yl-2H-[1,2,4]triazol-3-yl)-phenol]
- pEC50 [1]: < 4.72

Compound: Fc1ccccc1-c1nnc(-c2ncccc2C(F)(F)F)o1 [Compound 348, 2-[5-(2-Fluoro-phenyl)-[1,3,4]oxadiazol-2-yl]-3-trifluoromethyl-pyridine]
- pEC50 [1]: < 4.49

Compound: Cc1cccnc1-c1n[nH]c(-c2cc(F)ccc2O)n1 [Compound 443, 4-Fluoro-2-(5-(3-methyl-pyridin-2-yl)-2H-[1,2,4]triazol-3-yl)-phenol]
- pEC50 [1]: < 5.00

Compound: COc1ccc(-c2nc(-c3ccc(C(F)(F)F)cn3)no2)c(O)c1OC [Compound 265, 2,3-Dimethoxy-6-[3-(5-trifluoromethyl-pyridin-2-yl)-[1,2,4]oxadiazol-5-yl]-phenol]
- pEC50 [1]: 4.55

Compound: Cc1cc(-c2ccccc2O)nn1-c1ccccc1 [Compound 11, 2-(5-Methyl-1-phenyl-1H-pyrazol-3-yl)-phenol]
- pEC50 [3]: 5.05

Compound: Brc1cccc(-c2nc(-c3ccccn3)n[nH]2)c1 [Compound 432, 2-[5-(3-Bromo-phenyl)-1H-[1,2,4]triazol-3-yl]-pyridine]
- pEC50 [1]: 4.72

Compound: COc1cccc(-c2nc(-c3cnccn3)n[nH]2)c1O [Compound 586, 6-Methoxy-2-(5-pyrazin-2-yl-2H-[1,2,4]triazol-3-yl)-phenol]
- pEC50 [2]: < 4.49

Compound: Cc1cccc(-c2n[nH]c(-c3c(Cl)cccc3Cl)n2)n1 [Compound 467, 2-[5-(2,6-Dichloro-phenyl)-1H-[1,2,4]triazol-3-yl]-6-methyl-pyridine]
- pEC50 [1]: < 4.49

Compound: Cn1nc(-c2ccccn2)nc1-c1cc([N+](=O)[O-])ccc1O [Compound 597, 4-Nitro-2-(2-methyl-5-pyridin-2-yl-2H-[1,2,4]triazol-3-yl)-phenol]
- pEC50 [2]: 4.96

Compound: COc1ccc(F)c(-c2nc(-c3nccc4ccccc34)n[nH]2)c1 [Compound 383]
- pEC50 [1]: < 4.72

Compound: Cc1cc(-c2ccc3ccccc3c2O)nn1-c1ccccc1[N+](=O)[O-] [Compound 12, 2-[5-Methyl-1-(2-nitro-phenyl)-1H-pyrazol-3-yl]-naphthalen-1-ol]
- pEC50 [3]: 4.89

Compound: COc1ccc(-c2ccnn2-c2ncc(C(F)(F)F)cc2Cl)c(F)c1 [Compound 48, 3-Chloro-2-[5-(2-fluoro-4-methoxy-phenyl)-pyrazol-1-yl]-5-trifluoromethyl-pyridine]
- pEC50 [3]: 4.82

Compound: Fc1ccccc1-c1nnc(-c2ncc(C(F)(F)F)cc2Cl)o1 [Compound 349, 3-Chloro-2-[5-(2-fluoro-phenyl)-[1,3,4]oxadiazol-2-yl]-5-trifluoromethyl-pyridine]
- pEC50 [1]: < 4.49

Compound: COc1cccc(-c2nc(-c3ccccn3)no2)c1O [Compound 151, 2-Methoxy-6-(3-pyridin-2-yl-[1,2,4]oxadiazol-5-yl)-phenol]
- pEC50 [3]: 4.74

Compound: COc1cccc(-c2nc(-c3ccccn3)n[nH]2)c1O [Compound 362, 6-Methoxy-2-(5-pyridin-2-yl-2H-[1,2,4]triazol-3-yl)-phenol]
- pEC50 [1]: < 4.72

Compound: Oc1ccccc1-c1nc(-c2ccc(C(F)(F)F)cn2)n[nH]1 [Compound 518, 2-[5-(5-trifluoromethyl-pyridin-2-yl)-2H-[1,2,4]triazol-3-yl]-phenol]
- pEC50 [2]: < 4.72

Compound: Cc1cccnc1-c1n[nH]c(-c2cc(Cl)cc(Br)c2O)n1 [Compound 624, 4-Chloro-6-bromo-2-[5-(3-methyl-pyridin-2-yl)-2H-[1,2,4]triazol-3-yl]-phenol]
- pEC50 [2]: 5.66

Compound: COc1ccc(F)c(-c2nc(-c3cnccc3C(F)(F)F)n[nH]2)c1 [Compound 481, 3-[5-(2-Fluoro-5-methoxy-phenyl)-1H-[1,2,4]triazol-3-yl]-4-trifluoromethyl-pyridine]
- pEC50 [2]: < 4.49

Compound: CC(=O)Nc1ccc(O)c(-c2nc(-c3ncccc3C)no2)c1 [Compound 275, N-{4-Hydroxy-3-[3-(3-methyl-pyridin-2-yl)-[1,2,4]oxadiazol-5-yl]-phenyl}-acetamide]
- pEC50 [1]: 4.74

Compound: CCOc1cccc(-c2nc(-c3cnccn3)n[nH]2)c1O [Compound 580, 6-Ethoxy-2-(5-pyrazin-2-yl-2H-[1,2,4]triazol-3-yl)-phenol]
- pEC50 [2]: < 4.49

Compound: O=[N+]([O-])c1cccnc1-c1noc(-c2cccc3ccccc23)n1 [Compound 157, 2-(5-Naphthalen-1-yl-[1,2,4]oxadiazol-3-yl)-3-nitro-pyridine]
- pEC50 [3]: 5.33

Compound: Fc1ccccc1-c1nc(-c2nccc3ccccc23)n[nH]1 [Compound 470]
- pEC50 [1]: 5.14

Compound: Cc1cc(-c2c(O)ccc3ccccc23)nn1-c1ccccc1[N+](=O)[O-] [Compound 1, 1-[5-Methyl-1-(2-nitro-phenyl)-1 H-pyrazol-3-yl]-naphthalen-2-ol]
- pEC50 [3]: < 4.49

Compound: COc1ccc(-c2ccn(-c3ccccn3)n2)c(F)c1 [Compound 53, 2-[3-(2-Fluoro-4-methoxy-phenyl)-pyrazol-1-yl]-pyridine]
- pEC50 [3]: < 4.49

Compound: Cc1cccnc1-c1noc(-c2cc(Br)ccc2O)n1 [Compound 190, 4-Bromo-2-[3-(3-methyl-pyridin-2-yl)-[1,2,4]oxadiazol-5-yl]-phenol]
- pEC50 [3]: 6.16

Compound: COc1cccc(-c2nc(-c3ncccc3C)n[nH]2)c1O [Compound 453, 6-Methoxy-2-(5-(3-methyl-pyridin-2-yl)-2H-[1,2,4]triazol-3-yl)-phenol]
- pEC50 [1]: 4.68

Compound: COc1ccc(O)c(-c2ccn(-c3ccc(C(=O)N4CCCCC4)cn3)n2)c1 [Compound 102, {6-[3-(2-Hydroxy-5-methoxy-phenyl)-pyrazol-1-yl]-pyridin-3-yl)-piperidin-1-yl-methanone]
- pEC50 [3]: < 4.49

Compound: Oc1cc(OCc2ccccc2)ccc1-c1nc(-c2ccccn2)n[nH]1 [Compound 356, 5-Benzyloxy-2-(5-pyridin-2-yl-2H-[1,2,4]triazol-3-yl)-phenol]
- pEC50 [1]: < 4.72
